pEC50, pIC50: −log10 of the molar value. Where two headings read alike, the source gives them in different places.
How the values were obtained:
[1] = system: HBV; experiment: Determination of HBV DNA from the supernatants of HepAD38 cells (anti-HBV activity); assay type: cell-based, hepatitis B virus; details: HBV DNA in HepAD38 supernatant, day 6, qPCR, read-out: Cell Activity (EC50)
Outline: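 Supernatant viral DNA was measured by LightCycler qPCR, calibrated with pCH-9/3091 plasmid, 6 days after tetracycline-free HepAD38 cultures received half-log serial compound dilutions; untreated and tetracycline-treated cells served as controls; EC50 was fitted by non-linear regression.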

[2] = molecular target: T1, HBV core protein (UniProt P03146); experiment: Biochemical capsid assembly assay (fluorescence quenching); parameters: species or system hepatitis B virus
T1 construct: fused on or other part: BODIPY-FL maleimide label on the C-terminal Cys150
T1 sequence (P03146 whole entry, looked up, the tested form may be a part): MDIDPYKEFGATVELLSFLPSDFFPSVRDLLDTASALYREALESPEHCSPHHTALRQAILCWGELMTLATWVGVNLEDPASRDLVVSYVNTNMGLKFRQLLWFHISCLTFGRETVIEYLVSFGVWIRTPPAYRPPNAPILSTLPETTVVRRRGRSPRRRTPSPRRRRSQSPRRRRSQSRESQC
Outline: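 Assembly-induced fluorescence quenching (477/525 nm) was measured 6 min after NaCl addition ([…]), against 2.5 M and 0 M NaCl controls. The labelled C150 core dimer (truncated at 149) at 1.0-2.0 μM in HEPES pH 7.5 was tested with eight half-log compound dilutions, top 100, 31.6 or 10 μM. EC50 was obtained by non-linear fit from triplicates run three times.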

[3] = system: HepAD38 cells; experiment: Cell viability assay (AlamarBlue) in HepAD38 cells; details: HepAD38 cells with 0.3 μg/ml tetracycline, six days incubation, AlamarBlue
[4] = Cell viability assay (AlamarBlue) in HepAD38 cells; details: human
[5] = BODIPY-FL labelled core protein, 300 μM NaCl, read 6 min after start; read-out: Assembly Activity (IC50)

tert-butyl N-(2-{1-[5-(1H-indole-2-carbonyl)-2H,4H,5H,6H,7H-pyrazolo[4,3-c]pyridin-3-yl]-N-methylformamido}ethyl)carbamate [Example 281]
pEC50 [1]: 4.60 to 6.00
pIC50 [2, 5]: > 4.00
CC50 [3]: > 10 µM

N-ethyl-5-(1H-indole-2-carbonyl)-N-(2-methoxyethyl)-1H,4H,5H,6H,7H-pyrazolo[4,3-c]pyridine-3-carboxamide [Example 294]
pEC50 [1]: > 6.00
pIC50 [2, 5]: 5.00 to 5.30
CC50 [3]: > 10 µM

3-{1-[5-(1H-indole-2-carbonyl)-2H,4H,5H,6H,7H-pyrazolo[4,3-c]pyridin-3-yl]-N-methylformamido}-N-methanesulfonylpropanamide [Example 244]
pEC50 [1]: > 4.00
CC50 [3]: > 10 µM

5-[4-(1,1-difluoroethyl)-1H-indole-2-carbonyl]-N-[1-(methoxymethyl)cyclopropyl]-N-methyl-1H,4H,5H,6H,7H-pyrazolo[4,3-c]pyridine-3-carboxamide [Example 301]
pEC50 [1]: > 6.00
pIC50 [2, 5]: > 5.30
CC50 [3]: > 10 µM

5-(4-chloro-5-fluoro-1H-indole-2-carbonyl)-N-[1-(methoxymethyl)cyclopropyl]-N-methyl-1H,4H,5H,6H,7H-pyrazolo[4,3-c]pyridine-3-carboxamide [Example 268]
pEC50 [1]: > 6.00
pIC50 [2, 5]: > 5.30
CC50 [3]: > 10 µM

N-[1-(methoxymethyl)cyclopropyl]-N-methyl-5-(4-methyl-1H-indole-2-carbonyl)-1H,4H,5H,6H,7H-pyrazolo[4,3-c]pyridine-3-carboxamide [Example 260]
pEC50 [1]: > 6.00
pIC50 [2, 5]: > 5.30
CC50 [3]: > 10 µM

N-(2,3-dihydroxypropyl)-5-(1H-indole-2-carbonyl)-N-methyl-2H,4H,5H,6H,7H-pyrazolo[4,3-c]pyridine-3-carboxamide [Example 253]
pEC50 [1]: 4.60 to 6.00
pIC50 [2, 5]: 5.00 to 5.30
CC50 [3]: > 10 µM

O=C(c1cc2ccccc2[nH]1)N1CCc2[nH]nc(C(=O)N3Cc4cn[nH]c4C3)c2C1 [Example 181, 2-(3-{1H,4H,5H,6H-pyrrolo[3,4-c]pyrazole-5-carbonyl}-1H,4H,5H,6H,7H-pyrazolo[4,3-c]pyridine-5-carbonyl)-1H-indole]
pEC50 ([1]; Hepatitis B virus, 144 h): 4.60 to 6.00
pIC50 ([2]; read-out: Assembly Activity (IC50); BODIPY-FL labelled core protein, 300 μM NaCl, read 6 min after start): 5.00 to 5.30
CC50 at 6 days [4]: > 10 µM

From US11236087B2, “Highly active pyrazolo-piperidine substituted indole-2-carboxamides active against the hepatitis B virus (HBV)” (AiCuris GmbH & Co. KG, priority 2017, dated 2022)
